Test results taken from US20240254129A1, “HETEROCYCLIC COMPOUNDS AND USES THEREOF” (Kumquat Biosciences Inc., priority 2021, published 2024).
pIC50: −log10 of the molar value.

Experiments:
[1] = molecular target: GST-tagged K-Ras mutant / His-tagged hSOS1 (Homo sapiens, UniProt P01116); experiment: HTRF assay, K-Ras mutant / SOS1 interaction; assay type: binding; details: compound nos. 401-703; read-out: IC50 against mutant Kras
Procedure, shortened: (§1)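 Compounds, in duplicate at six concentrations from 10 μM to 0.01 μM, are added to GST-K-Ras premixed with anti-GST-Eu(K), then His-hSOS1 with anti-6His-XL665. After roughly 10 min, FRET is measured and the emission ratio is used to derive IC50.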

wildtype Kras / hSOS1 = molecular target: T1, wildtype Kras / hSOS1 (Homo sapiens, UniProt P01116); experiment: HTRF assay, wildtype Kras / SOS1 interaction; assay type: binding; details: compound nos. 401-703; read-out: IC50 against wildtype Kras
T1 construct: made in house; host or cells: E. coli BL21 (DE3)
T1 sequence (P01116 1-188 isoform P01116-2): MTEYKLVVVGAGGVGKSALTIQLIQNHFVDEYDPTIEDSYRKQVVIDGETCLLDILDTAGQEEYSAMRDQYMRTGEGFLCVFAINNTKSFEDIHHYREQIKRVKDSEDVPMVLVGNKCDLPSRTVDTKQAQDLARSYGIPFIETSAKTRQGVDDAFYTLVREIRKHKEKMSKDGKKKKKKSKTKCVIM
Procedure, shortened: as §1

Chain of GST-tagged K-Ras mutant / His-tagged hSOS1 (P01116 whole entry G12D, form open): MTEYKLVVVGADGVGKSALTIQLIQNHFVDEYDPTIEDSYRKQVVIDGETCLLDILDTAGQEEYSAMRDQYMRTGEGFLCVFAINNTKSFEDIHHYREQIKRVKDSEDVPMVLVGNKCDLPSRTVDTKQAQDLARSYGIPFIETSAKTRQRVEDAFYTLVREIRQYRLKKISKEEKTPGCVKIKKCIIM

Compound | pIC50 [1] | pIC50 (wildtype Kras / hSOS1)
Nc1nc2c(-c3c(Cl)cc4c(N5CC6CCC(C5)N6)nc(OCC56CCCC5CCC6)nc4c3F)cccc2s1 (stereo not shown) [Compound 571, 4-(4-(3,8-diazabicyclo-[3.2.1]octan-3-yl)-6-chloro-8-fluoro-2-((hexahydro-pentalen-3a(1H)-yl)meth-oxy)quinazolin-7-yl)benzo-[d]thiazol-2-amine] | < 6.30 | < 6.30
Fc1c(-c2cccc3sccc23)c(Cl)cc2c(N3CC4CCC(C3)N4)nc(OC[C@@]34CCCN3C[C@H](F)C4)nc12 [Compound 579, 7-(benzo[b]thiophen-4-yl)-4-(3,8-diazabicyclo[3.2.1]-octan-3-yl)-6-chloro-8-fluoro-2-(((2R,7aS)-2-fluorotetrahydro-1H-pyrrol-izin-7a(5H)-yl)methoxy)-quinazoline] | < 6.30 | < 6.30
Fc1c(N2CCCc3ccccc32)ccc2c(N3CCCCCC3)nc(OCC34CCCN3CCC4)nc12 [Compound 580, 4-(azepan-1-yl)-7-(3,4-dihydroquinolin-1(2H)-yl)-8-fluoro-2-((tetrahydro-1H-pyrrolizin-7a(5H)-yl)meth-oxy)quinazoline] | < 6.30 | < 6.30
Oc1ccc2c(c1)N(c1ccc3c(N4CCCCCC4)nc(OCC45CCCN4CCC5)nc3c1F)CCC2 [Compound 584, 1-(4-(azepan-1-yl)-8-fluoro-2-((tetrahydro-1H-pyrrol-izin-7a(5H)-yl)methoxy)-quinazolin-7-yl)-1,2,3,4-tetrahydroquinolin-7-ol] | < 6.30 | < 6.30
Nc1c(Cl)cccc1-c1c(Cl)cc2c(N3CC4CCC(C3)N4)nc(OCC34CCCN3CCC4)nc2c1F [Compound 589, 2-(4-(3,8-diazabicyclo-[3.2.1]octan-3-yl)-6-chloro-8-fluoro-2-((tetrahydro-1H-pyrrolizin-7a(5H)-yl)meth-oxy)quinazolin-7-yl)-6-chloroaniline] | < 6.30 | < 6.30
CNCCCN1[C@@H]2CC[C@H]1CN(c1nc(OCC34CCCN3CCC4)nc3c(F)c(-c4ccc(F)c5sc(N)nc45)c(Cl)cc13)C2 [Compound 594, 4-(6-chloro-8-fluoro-4-((1R,5S)-8-(3-(methyl-amino)propyl)-3,8-diaza-bicyclo[3.2.1]octan-3-yl)-2-((tetrahydro-1H-pyrrol-izin-7a(5H)-yl)methoxy)-quinazolin-7-yl)-7-fluoro-benzo[d]thiazol-2-amine] | > 6.30 | < 6.30
N#CCCc1cc2c(N3CC4CCC(C3)N4)nc(OC[C@@]34CCCN3C[C@H](F)C4)nc2c(F)c1-c1cc(O)cc2ccccc12 [Compound 595, 3-(4-(3,8-diazabicyclo-[3.2.1]octan-3-yl)-8-fluoro-2-(((2R,7aS)-2-fluorotetra-hydro-1H-pyrrolizin-7a(5H)-yl)methoxy)-7-(3-hydroxynaphthalen-1-yl)-quinazolin-6-yl)propane-nitrile] | > 6.30 | < 6.30
Nc1ccc2cccc(-c3ccc4c(N5CC6CCC(C5)N6)nc(OCC56CCCN5CCC6)nc4c3F)c2n1 [Compound 596, 8-(4-(3,8-diazabicyclo-[3.2.1]octan-3-yl)-8-fluoro-2-((tetrahydro-1H-pyrrol-izin-7a(5H)-yl)methoxy)-quinazolin-7-yl)quinolin-2-amine] | < 6.30 | < 6.30
Nc1ccc2cccc(-c3c(Cl)cc4c(N5CC6CCC(C5)N6)nc(OCC56CCCN5CCC6)nc4c3F)c2n1 [Compound 597, 8-(4-(3,8-diazabicyclo-[3.2.1]octan-3-yl)-6-chloro-8-fluoro-2-((tetrahydro-1H-pyrrolizin-7a(5H)-yl)meth-oxy)quinazolin-7-yl)quin-olin-2-amine] | < 6.30 | < 6.30
N#Cc1c(N)sc2c(F)ccc(-c3c(Cl)cc4c(N5CCCOCC5)nc(OC[C@@]56CCCN5C[C@H](F)C6)nc4c3F)c12 [Compound 598, 2-amino-4-(6-chloro-8-fluoro-2-(((2R,7aS)-2-fluorotetrahydro-1H-pyrrol-izin-7a(5H)-yl)methoxy)-4-(1,4-oxazepan-4-yl)quin-azolin-7-yl)-7-fluorobenzo-[b]thiophene-3-carbonitrile] | > 6.30 | < 6.30

The next lines start with the values.

pIC50 [1] | pIC50 (wildtype Kras / hSOS1) | Compound
> 6.30 | < 6.30 | N#CCN1C2CCC1CN(c1nc(OC[C@@]34CCCN3C[C@H](F)C4)nc3c(F)c(-c4ccc(F)c5sc(N)c(C#N)c45)c(Cl)cc13)C2 [Compound 570, 2-amino-4-(6-chloro-4-((1R,5S)-8-(cyanomethyl)-3,8-diazabicyclo[3.2.1]-octan-3-yl)-8-fluoro-2-(((2R,7aS)-2-fluorotetra-hydro-1H-pyrrolizin-7a(5H)-yl)methoxy)quinazolin-7-yl)-7-fluorobenzo[b]thio-phene-3-carbonitrile]
> 6.30 | < 6.30 | CN1CCC[C@H]1COc1nc(N2CCCC(F)C(F)C2)c2cc(Cl)c(-c3cccc4sc(N)nc34)c(F)c2n1 (stereo partly drawn) [Compound 573, 4-(6-chloro-4-(3,4-difluoro-azepan-1-yl)-8-fluoro-2-(((S)-1-methylpyrrolidin-2-yl)methoxy)quinazolin-7-yl)-benzo[d]thiazol-2-amine]
> 6.30 | < 6.30 | N#Cc1c(N)sc2c(F)ccc(-c3c(Cl)cc4c(N5CCCS(=O)(=O)CC5)nc(OC[C@@]56CCCN5C[C@H](F)C6)nc4c3F)c12 [Compound 574, 2-amino-4-(6-chloro-4-(1,1-dioxido-1,4-thiazepan-4-yl)-8-fluoro-2-(((2R,7aS)-2-fluorotetrahydro-1H-pyrrol-izin-7a(5H)-yl)methoxy)-quinazolin-7-yl)-7-fluoro-benzo[b]thiophene-3-carbonitrile]
> 6.30 | < 6.30 | CNCCN1CCCN(c2nc(OCC34CCCN3CCC4)nc3c(F)c(-c4ccc(F)c5sc(N)nc45)c(Cl)cc23)CC1 [Compound 575, 4-(6-chloro-8-fluoro-4-(4-(2-(methylamino)ethyl)-1,4-diazepan-1-yl)-2-((tetra-hydro-1H-pyrrolizin-7a(5H)-yl)methoxy)quinazolin-7-yl)-7-fluorobenzo[d]thiazol-2-amine]
> 6.30 | < 6.30 | Nc1nc2c(-c3c(Cl)cc4c(N5CCN(S(=O)(=O)C6CC6)CC(F)(F)C5)nc(OC[C@@]56CCCN5C[C@H](F)C6)nc4c3F)ccc(F)c2s1 [Compound 576]
> 6.30 | < 6.30 | Nc1nc2c(-c3c(Cl)cc4c(N5CC6CCC(C5)N6)nc(OCC56CCCN5CCC6)nc4c3F)c(F)ccc2s1 [Compound 578, 4-(4-(3,8-diazabicyclo-[3.2.1]octan-3-yl)-6-chloro-8-fluoro-2-((tetrahydro-1H-pyrrolizin-7a(5H)-l)meth-oxy)quinazolin-7-yl)-5-fluorobenzo[d]thiazol-2-amine]
> 6.30 | < 6.30 | CN1CCC[C@H]1COc1nc(N2CCCC(C(N)=O)CC2)c2cc(Cl)c(-c3cccc4sc(N)nc34)c(F)c2n1 (stereo partly drawn) [Compound 581, 1-(7-(2-aminobenzo[d]-thiazol-4-yl)-6-chloro-8-fluoro-2-(((S)-1-methyl-pyrrolidin-2-yl)methoxy)-quinazolin-4-yl)azepane-4-carboxamide]
> 6.30 | < 6.30 | N#Cc1c(N)sc2c(F)ccc(-c3c(Cl)cc4c(N5CC6CCC(C5)O6)nc(OC[C@@]56CCCN5C[C@H](F)C6)nc4c3F)c12 [Compound 583, 4-(4-(8-oxa-3-azabicyclo-[3.2.1]-octan-3-yl)-6-chloro-8-fluoro-2-(((2R,7aS)-2-fluorotetrahydro-1H-pyrrol-izin-7a(5H)-yl)methoxy)-quinazolin-7-yl)-2-amino-7-fluorobenzo[b]thiophene-3-carbonitrile]
> 6.30 | < 6.30 | Nc1nc2c(-c3c(Cl)cc4c(N5CC6CCC(C5)N6)nc(OCC5(CN6CC[C@@H](F)C6)CC5)nc4c3F)ccc(F)c2s1 [Compound 586, 4-(4-(3,8-diazabicyclo-[3.2.1]octan-3-yl)-6-chloro-8-fluoro-2-((1-(((R)-3-fluoropyrrolidin-1-yl)meth-yl)cyclopropyl)methoxy)-quinazolin-7-yl)-7-fluoro-benzo[d]thiazol-2-amine]
> 6.30 | < 6.30 | Nc1nc2c(-c3c(Cl)cc4c(N5CC6CCC(C5)N6)nc(OC[C@@]56CCCN5C[C@H](F)C6)nc4c3F)cccc2o1 [Compound 588, 4-(4-(3,8-diazabicyclo-[3.2.1]-octan-3-yl)-6-chloro-8-fluoro-2-(((2R,7aS)-2-fluorotetrahydro-1H-pyrrol-izin-7a(5H)-yl)methoxy)-quinazolin-7-yl)benzo[d]-oxazol-2-amine]
> 6.30 | < 6.30 | Nc1nc2c(-c3cc4nc(OCC56CCCN5CCC6)nc(N5CC6CCC(C5)N6)c4cc3Cl)ccc(F)c2s1 [Compound 591, 4-(4-(3,8-diazabicyclo-[3.2.1]octan-3-yl)-6-chloro-2-((tetrahydro-1H-pyrrol-izin-7a(5H)-yl)methoxy)-quinazolin-7-yl)-7-fluoro-benzo[d]thiazol-2-amine]
> 6.30 | < 6.30 | N#Cc1c(N)sc2c(F)ccc(-c3c(Cl)cc4c(N5CCCC6(CCNC6)C5)nc(OC[C@@]56CCCN5C[C@H](F)C6)nc4c3F)c12 (stereo partly drawn) [Compound 592, 2-amino-4-(6-chloro-8-fluoro-2-(((2R,7aS)-2-fluorotetrahydro-1H-pyrrol-izin-7a(5H)-yl)methoxy)-4-(2,7-diazaspiro[4.5]decan-7-yl)quinazolin-7-yl)-7-fluorobenzo[b]thiophene-3-carbonitrile]
> 6.30 | < 6.30 | CN1CCC[C@H]1COc1nc(N2CCCC(Cl)CC2)c2cc(Cl)c(-c3cccc4sc(N)nc34)c(F)c2n1 (stereo partly drawn) [Compound 593, 4-(6-chloro-4-(4-chloro-azepan-1-yl)-8-fluoro-2-(((S)-1-methylpyrrolidin-2-yl)methoxy)quinazolin-7-yl)benzo[d]thiazol-2-amine]
